This note sets out measurements from patent US10450317B2, “Notch pathway signaling inhibitor compounds” (Eli Lilly and Company, priority 2015, dated 2019).

The test system of one assay is cleaved Notch1 (N1ICD). Put plainly: In-vivo target inhibition study, cleaved N1ICD in lung by ELISA. Details: species or system Balb/C mice. As to conditions: mouse lung. On the procedure: To evaluate in vivo effect of Compound 1, Isomer 2 and. Compound 2, Isomer 2 on inhibition of Notch processing pharmacodynamics (PD), animal studies were conducted in non-tumor bearing Balb/C mice (Charles River). A total of 5 mice are used for each group. Mice are fed ad libitum on normal chow. Treatment is initiated with oral administration (gavage) of compound or vehicle (1% Na-CMC in 0.25% Tween-80) in 0.2 mL volume. At designated time points (4 or 8 hours after the dose) following treatment, animals are sacrificed by CO2 asphyxiation and cervical dislocation. Tissues (Lungs) are removed and used for PD response analysis as measured by cleaved N1ICD.
To evaluate N1ICD levels in lung, approximately 75 mg is cut from the frozen tissue and minced prior to homogenization (actual mass recorded). […] are transferred to Lysing Matrix-D™ tubes and re-suspended in ice-cold XY lysis buffer (25 mM Tris pH 7.5, 10 μg/ml Trypsin/Chymotrypsin inhibitor, 10 μg/ml Aprotinin, 60 mM Beta-glycerol phosphate, 1% Triton® X-100, 10 mM NaF, 2.5 mM pyrophosphate, 150 mM NaCl, 15 mM ethylene diamine tetra acetic acid (EDTA) pH 8.0, 5 mM ethylene glycol-bis(2-aminoethylether)-N,N,N′,N′-tetra acetic acid (EGTA) pH 8.0, 1 mM Na Vanadate, 10 μg/ml Leupeptin, 1 mM dithiothreitol, 1 μM microcystin LR, 10 μg/ml N-p-tosyl-L-phenylalanine chloromethyl ketone (TPCK), 2 mM Nα-p-tosyl-L-arginine methyl ester hydrochloride (TAME), 15 mM 4-nitrophenyl phosphate di(tris) salt (PNPP), 0.1 mM 4-(2-aminoethyl) benzenesulfonyl fluoride hydrochloride (AEBSF), 5 mM benzamidine, 1 μM Okadaic Acid) containing 1× Complete tablet (Roche Complete™ No. 11697 498 001) and 1× Protease Inhibitor cocktail (Sigma-Aldrich P8340) at a mass: volume ratio of 75 mg/ml buffer. Tissues are homogenized in a Fast Prep FP120 homogenizer (Thermo Scientific, Rockford, Ill.) at a speed of 6.0 for 30 seconds at 4° C., followed by 15 minute incubation on ice. This is repeated for a total of 2-3 cycles until homogenization is complete. Lysates are spun in a 4° C. eppendorf centrifuge at 30,000 rpm for 15 minutes to remove debris. 400 μl of supernatant is removed and transferred to a new eppendorf tube and subjected to a freeze/thaw cycle. Samples are re-spun in a 4° C. eppendorf centrifuge at 30,000 rpm for 30 minutes and 120 μl of supernatant is collected for analysis. Total protein concentration is determined using Pierce BCA Protein Assay Kit™ (Thermo Scientific, Rockford, Ill.) using a Thermomax™ plate reader (Molecular Devices, Sunnyvale, Calif.). N1ICD levels are determined using a custom N1ICD ELISA. Analyte is captured with a cleaved Notch1 (Val1744)-specific custom rabbit monoclonal antibody and detected with a C-terminal Notch1 SULFO-TAG™ (Meso Scale Discovery, Gaithersburg, Md.) polyclonal sheep antibody (R&D Systems, Minneapolis, Minn.). Lysates are diluted to 2 μg/μl in ice-cold ELISA tris lysis buffer (R6OTX) (Meso Scale Discovery, Gaithersburg, Md.) containing 1× Complete tablet (Roche Complete™ mini No. 11 836 153 001) and 1× Protease Inhibitor cocktail (Sigma-Aldrich P8340), and 25 μl is added to the ELISA plate. Incubation of 50 μg protein lysate is done at RT for one hour each to capture analyte and with detection antibody. Plates are read on a Sector Imager 6000™ (Meso Scale Discovery, Gaithersburg, Md.). Background subtracted N1ICD is normalized to total protein and presented as % inhibition relative to the vehicle-treated group. N1ICD % inhibition and statistical significance (p value) as measured by Dunett's method in tumors harvested 4 hours after last dose for Compound 1, Isomer 2 or Compound 2, Isomer 2 is analyzed essentially as described above and summarized in Table 1.

The test system of assay [1] is hair cell generation markers Atoh1, Pou4f3, Myo7a in organ of Corti explants. Put plainly: Organ of Corti explant assay, hair cell marker gene expression by qRT-PCR. Format: cell-based, mice. As to conditions: 1 μM, fold-induction relative to negative control, ± SEM. On the procedure: Generally, organ of Corti organotypic explant culture is carried out on Day 0 according to the method described in Parker et al., Journal of Visualized Experiments, 2010, (36), e1685. Explant culture is carried out for 4-7 days at which point the culture is either prepared for cellular lysis for qRT-PCR, or tissue fixation for immunohistochemistry.
The bulla and surrounding tissue from the petrous portion of the temporal bone are removed from 1 to 4 day-old postnatal mice (transgenic strain: Atoh1-driven nGFP; Lumpkin E A, et al., Gene Expr Patterns, 2003, (36):389-95) of both sexes. Organs of Corti are dissected in Hanks solution, the spiral ligament is removed and the explants are placed on cover slips coated with poly-L-ornithine (0.01%, Sigma) and laminin ([…], Becton Dickinson) to obtain a preparation with a flat cochlear surface. Each cochlear explant is then placed in a single well of a 24 well plate (Falcon) and cultured in DMEM (Invitrogen) with 5% fetal bovine serum, 5% horse serum, and penicillin-streptomycin (LifeTechnologies). Experimental compounds are added with medium on Day 0 and replaced every 2-3 days. All cultures are maintained in a 5% CO2 humidified incubator at 37° C.
RNA Extraction is carried out by lysing the explant tissue with 350 μl RLT Plus buffer (Qiagen) per well, and total RNA is purified by RNeasy® Plus Mini Kit (Qiagen). cDNA synthesis is carried out with the SuperScript® III First-Strand Synthesis System (LifeTechnologies) using random hexamers. To quantify the induction of hair cell marker expression, qPCR is performed with TaqMan Gene Expression Master Mix (LifeTechnologies, 4369016) and probes to detect genes of interest (e.g. […]; Assay ID Mm00476035_s1, Pou4f3; Assay ID Mm04213795_s1 and Myo7a; Assay ID Mm01274015_m1, LifeTechnologies) and an endogenous control gene, Tbp (Assay ID Mm00446971_m1, LifeTechnologies). Relative gene expression between treatment groups is analyzed using the ΔΔCT method and replicate measurements are averaged. Experiments are carried out in triplicate, at a minimum, and reported as a grand mean.
Data (±SEM) represent the fold-induction in gene expression relative to negative control-treated samples.

Where [2] appears, read: oral 10 mg/kg, 4 hours following treatment.

SMILES strings stand for the structures. Values joined by “and” are separate entries in the source; they are usually repeats but may differ in a detail not shown here. Identical values can stand only once.

`COc1ccc2c(c1)N1CCC(C)(C)C1=CC(=O)C2NC(=O)[C@H](C)NC(=O)CCC(F)(F)F` (single isomer, unassigned) [Compound 1, Isomer 2]: the “% N1ICD inhibition (Ave ± SD; n = 1)” value in the assay with cleaved Notch1 (N1ICD) (oral 0.3 mg/kg, 8 hours following treatment) is −7 ± 26%; with cleaved Notch1 (N1ICD) (oral 1 mg/kg, 8 hours following treatment) it was 6 ± 15%; with cleaved Notch1 (N1ICD) (oral 3 mg/kg, 8 hours following treatment), 11 ± 13%; in the assay with cleaved Notch1 (N1ICD) (setting [2]), 70 ± 12%; in the assay on cleaved Notch1 (N1ICD) (oral 10 mg/kg, 8 hours following treatment, listed as 1, Isomer 2, 10 mg/kg), 52 ± 31% and 65 ± 11%; in the assay on cleaved Notch1 (N1ICD) (oral 30 mg/kg, 8 hours following treatment), 87 ± 3%. In addition, the “% N1ICD inhibition (Ave ± SD; n = 1)” value in the assay with cleaved Notch1 (N1ICD) (oral 100 mg/kg, 8 hours following treatment) was 92 ± 3%. Further, in assay [1], the “RQ of Atoh1 expression” value was found to be 3.72 ± 0.54. The “RQ of Myo7a expression” value in assay [1] worked out at 1.73 ± 0.33. Moreover, in assay [1], the “RQ of Pou4f3 expression” value is listed as 2.04 ± 0.35.

Regarding `C[C@H](NC(=O)CCC(F)(F)F)C(=O)NC1C(=O)C=C2N(CCC2(C)C)c2ncccc21` (single isomer, unassigned) [Compound 2, Isomer 2], the “% N1ICD inhibition (Ave ± SD; n = 1)” value in the assay with cleaved Notch1 (N1ICD) (setting [2]) is reported as 65 ± 11%. Besides, the “% N1ICD inhibition (Ave ± SD; n = 1)” value in the assay on cleaved Notch1 (N1ICD) (oral 10 mg/kg, 8 hours following treatment) turned out to be 15 ± 14%. Also, in assay [1], the “RQ of Atoh1 expression” value is given as 3.10 ± 0.69, the “RQ of Myo7a expression” value is reported as 1.49 ± 0.22 and the “RQ of Pou4f3 expression” value was found to be 1.65 ± 0.25.
